Reference: US20210317072A1, “H2O CRYSTAL FORMS OF A TCA CYCLE INTERMEDIATE CONJUGATE” (IMBRIA PHARMACEUTICALS, INC., priority 2020, published 2021)

Assays:
Assay type in all cases: physicochemical
[1] = Polymorph screening under 32 conditions / form stability
Description: A comprehensive polymorph screening for a TCA intermediate conjugated to an amino acid which has the structure of Formula (X) was undertaken. The TCA conjugate starting material was characterized by X-ray powder diffraction (XRPD). […] One unique XRPD patterns was observed, which was Type A. Type A is a stable Type At the ambient temperature and humidity.
(§1) For with Type A, polymorph screening experiments were set up under 32 conditions using methods of solid vapor diffusion, slurry conversion at room temperature, slurry conversion at 50° C., and temperature cycling. Polymorph screening experiments were performed using different crystallization or solid transition methods.

[2] = Temperature cycling polymorph screening; conditions: summary of 6 experiments
Method: as §1

[3] = Solid vapor diffusion, precipitates isolated for XRPD analysis
Method: as §1
Solid vapor diffusion experiments were conducted in different solvent conditions. The precipitates were isolated for XRPD analysis.

[4] = Slurry conversion at 50° C., solids isolated for XRPD analysis
Method: as §1
(§2) Slurry conversion experiments were conducted at room temperate and at 50° C. in different solvent systems. Solids were isolated for XRPD analysis.

[5] = Slurry conversion at room temperature, solids isolated for XRPD analysis
Method: as §1, §2

Stability of the crystal form ([1]; ambient temperature and humidity): stable
Crystal Type ([1]; total, all 32 screening experiments): Type A, Type A + peak
Crystal Type [2]: Type A, Type A + peak
Solid Form ([3]; anti-solvent Acetone (exp. 818135-06-A5)): Type A
Solid Form ([3]; anti-solvent DCM (exp. 818135-06-A1)): Type A
Solid Form ([3]; anti-solvent DMSO (exp. 818135-06-A4)): Type A
Solid Form ([3]; anti-solvent EtOH (exp. 818135-06-A2)): Type A
Solid Form ([3]; anti-solvent H2O (exp. 818135-06-A6)): Type A
Solid Form ([3]; anti-solvent THF (exp. 818135-06-A3)): Type A
Crystal Type ([3]; summary of 6 experiments): Type A
Solid Form ([4]; slurry at 50° C., 1,4-dioxane (exp. 818135-05-A6)): Type A
Solid Form ([4]; slurry at 50° C., 2-Me THF (exp. 818135-05-A3)): Type A
Solid Form ([4]; slurry at 50° C., CHCL3 (exp. 818135-05-A7)): Type A
Solid Form ([4]; slurry at 50° C., EtOAc (exp. 818135-05-A2)): Type A
Solid Form ([4]; slurry at 50° C., EtOH (exp. 818135-05-A1)): Type A
Solid Form ([4]; slurry at 50° C., MEK (exp. 818135-05-A5)): Type A
Solid Form ([4]; slurry at 50° C., Toluene (exp. 818135-05-A9)): Type A
Solid Form ([4]; slurry at 50° C., n-heptane (exp. 818135-05-A4)): Type A + peak
Crystal Type ([4]; slurry at 50° C., summary of 9 experiments): Type A, Type A + peak
Solid Form ([5]; Acetone (exp. 818135-04-A2)): Type A
Solid Form ([5]; CAN (exp. 818135-04-A5)): Type A + peak
Solid Form ([5]; DCM (exp. 818135-04-A6)): Type A + peak
Solid Form ([5]; H2O (exp. 818135-04-A7)): Type A
Solid Form ([5]; IPAc (exp. 818135-04-A3)): Type A + peak
Solid Form ([5]; MTBE (exp. 818135-04-A4)): Type A + peak
Solid Form ([5]; MeOH (exp. 818135-04-A1)): Type A
Solid Form ([5]; THF/H2O (0.87:0.13, aW~0.8) (exp. 818135-04-A11)): Type A
Solid Form ([5]; THF/H2O (0.924:0.076, aW~0.6) (exp. 818135-04-A10)): Type A
Solid Form ([5]; THF/H2O (0.956:0.044, aW~0.4) (exp. 818135-04-A9)): Type A + peak
Solid Form ([5]; THF/H2O (0.98:0.02, aW~0.2) (exp. 818135-04-A8)): Type A
Crystal Type ([5]; summary of 11 experiments): Type A, Type A + peak
SMILES: N[C@@H](COC(=O)CCC(=O)O)C(=O)O [Type A]
